These results are taken from ChEMBL document CHEMBL3351440, “Synthesis of diethylamino-curcumin mimics with substituted triazolyl groups and their sensitization effect of TRAIL against brain cancer cells” (2014).

Calls of active or inactive are those of the source. No cut-off for these calls is given here. Bounds are passed on as bounds.

The nature of test [1]: Induction of apoptosis in human CRT-MG cells assessed as cell death at 10 uM after 24 hrs by LDH release assay. The class given is functional. For orientation: LDH leaks from cells whose membrane has failed.
Test [2] has as its system CRT-MG. Briefly: (§1) Induction of TRAIL-mediated human CRT-MG cell death at 10 uM after 24 hrs by LDH release assay relative to control. The class given is functional.
In test [3] the test system is CRT-MG. In words: (§2) Cytotoxicity against TRAIL-induced human CRT-MG cells at 50 uM after 24 hrs. The class given is functional.
Test [4] in a line: as §1. The class given is functional.
A short description of test [5]: Induction of apoptosis in human CRT-MG cells assessed as inhibition of cell proliferation at 10 uM after 24 hrs. The class given is functional.
A further test relates to LNCaP. Briefly: Cytotoxicity against TRAIL-induced human LNCAP cells assessed as caspase 3 activity at 10 uM after 48 hrs by MTS colorimetric assay relative to control. The class given is functional. On the technique in general: Tetrazolium assays rely on reduction of a dye to a coloured formazan, in cell work by metabolically active cells.
Test [6] is described as follows: Cytotoxicity against TRAIL-induced human U87MG cells assessed as cleavage of procaspase 3/8 at 10 uM after 48 hrs by MTS colorimetric assay. The class given is functional, U-87MG ATCC.
Test [7] can be described thus: Cytotoxicity against TRAIL-induced human U251MG cells assessed as cleavage of procaspase 3/8 at 10 uM after 48 hrs by MTS colorimetric assay. The class given is functional, U-251.
A short description of test [8]: as §2. The class given is functional.

For `CCN(CC)c1ccc(/C=C/C(=O)c2cccc(-n3cc(-c4ccc(OC)cc4)nn3)c2)cc1`, in test [1], the Activity was below 20%. In the test on CRT-MG [2], the outcome was Active.

As for `CCCCCc1ccc(-c2cn(-c3cccc(C(=O)/C=C/c4ccc(N(CC)CC)cc4)c3)nn2)cc1`, the Activity in test [1] is below 20%. Besides, the outcome with CRT-MG [2] was Active.

Turning to `CCN(CC)c1ccc(/C=C/C(=O)c2cccc(-n3cc(-c4ccccc4)nn3)c2)cc1`, in [1], the Activity is 14.3%. For the same compound, in the test on CRT-MG [3], the result was Active. The “fold change (FC)” value in test [4] came to 2.5.

For orientation: inhibition means the drop in the measured response relative to a control, in per cent. In the case of `CCN(CC)c1ccc(/C=C/C(=O)c2cccc(N=[N+]=[N-])c2)cc1`, the inhibition at 10 µM in test [5] was determined as 55.6%. Further, the Activity is 27.8% in [1] and 78.3% in [4].

`C=C(C)c1cn(-c2cccc(C(=O)/C=C/c3ccc(N(CC)CC)cc3)c2)nn1`: the Activity in test [1] was below 20%. Also, in the test on CRT-MG [2], the outcome was Active.

With `CCN(CC)c1ccc(/C=C/C(=O)c2cccc(-n3cc(-c4ccc(C)cc4)nn3)c2)cc1`, in test [1], the Activity is below 20%. Also, the outcome in the test on CRT-MG [2] was Active.

Turning to `CCN(CC)c1ccc(/C=C/C(=O)c2cccc(-n3cc(-c4cc(F)cc(F)c4)nn3)c2)cc1`, the Activity in test [1] is on record as below 20%.

As for `CCN(CC)c1ccc(/C=C/C(=O)c2cccc(-n3cc(-c4cccc(Cl)c4)nn3)c2)cc1`, the Activity in test [1] is below 20%. Also, the outcome in the test with CRT-MG [2] was Active.

`CCN(CC)c1ccc(/C=C/C(=O)c2cccc(-n3cc(-c4ccccc4C(F)(F)F)nn3)c2)cc1`: in test [1], the Activity is reported as below 20%. In addition, the result with CRT-MG [3] and with CRT-MG [2] was Active.

Turning to `COc1cc(/C=C/C(=O)CC(=O)/C=C/c2ccc(O)c(OC)c2)ccc1O` [CURCUMIN], the Ratio in the test with LNCaP was found to be 2. The Activity in test [6] is given as 45%; in test [7], 60%.

As for `CCN(CC)c1ccc(/C=C/C(=O)c2cccc(-n3cc(C(C)(C)O)nn3)c2)cc1`, the Activity in test [1] is recorded as 13.3%; in test [8], below 20%. For the same compound, the “fold change (FC)” value in [4] is recorded as 2.5.

Turning to `CCN(CC)c1ccc(/C=C/C(=O)c2cccc(-n3cc(-c4ccc(F)cc4)nn3)c2)cc1`, the Activity in [1] is recorded as below 20%. Moreover, the result in the test with CRT-MG [2] was Active.

In turn, `CCN(CC)c1ccc(/C=C/C(=O)c2cccc(-n3cc(-c4ccc(Br)cc4)nn3)c2)cc1` had an Activity in [8] below 20%. Moreover, the result in the test with CRT-MG [2] was Active.
